According to US20230135152A1 (ACURASTEM INCORPORATED, priority 2020, published 2023):

What follows are compounds tested against PIKFYVE (Homo sapiens, UniProt Q9Y2I7) (assay: PIKFYVE assay (luciferase ADP-Glo kinase assay, Promega)). Conditions: Table 2.
Type: biochemical
Method: The activity of Compounds 1-20 was measured using a PIKFYVE assay (luciferase ADP-Glo kinase assay available from Promega Corp. of Madison, Wis.).
The activity of Compounds 39-90 was also measured using a PIKFYVE assay (luciferase ADP-Glo kinase assay available from Promega Corp. of Madison, Wis.).
The activity of Compounds 93-347 was also measured using a PIKFYVE assay (luciferase ADP-Glo kinase assay available from Promega Corp. of Madison, Wis.).

Chain of PIKFYVE (Q9Y2I7 whole entry): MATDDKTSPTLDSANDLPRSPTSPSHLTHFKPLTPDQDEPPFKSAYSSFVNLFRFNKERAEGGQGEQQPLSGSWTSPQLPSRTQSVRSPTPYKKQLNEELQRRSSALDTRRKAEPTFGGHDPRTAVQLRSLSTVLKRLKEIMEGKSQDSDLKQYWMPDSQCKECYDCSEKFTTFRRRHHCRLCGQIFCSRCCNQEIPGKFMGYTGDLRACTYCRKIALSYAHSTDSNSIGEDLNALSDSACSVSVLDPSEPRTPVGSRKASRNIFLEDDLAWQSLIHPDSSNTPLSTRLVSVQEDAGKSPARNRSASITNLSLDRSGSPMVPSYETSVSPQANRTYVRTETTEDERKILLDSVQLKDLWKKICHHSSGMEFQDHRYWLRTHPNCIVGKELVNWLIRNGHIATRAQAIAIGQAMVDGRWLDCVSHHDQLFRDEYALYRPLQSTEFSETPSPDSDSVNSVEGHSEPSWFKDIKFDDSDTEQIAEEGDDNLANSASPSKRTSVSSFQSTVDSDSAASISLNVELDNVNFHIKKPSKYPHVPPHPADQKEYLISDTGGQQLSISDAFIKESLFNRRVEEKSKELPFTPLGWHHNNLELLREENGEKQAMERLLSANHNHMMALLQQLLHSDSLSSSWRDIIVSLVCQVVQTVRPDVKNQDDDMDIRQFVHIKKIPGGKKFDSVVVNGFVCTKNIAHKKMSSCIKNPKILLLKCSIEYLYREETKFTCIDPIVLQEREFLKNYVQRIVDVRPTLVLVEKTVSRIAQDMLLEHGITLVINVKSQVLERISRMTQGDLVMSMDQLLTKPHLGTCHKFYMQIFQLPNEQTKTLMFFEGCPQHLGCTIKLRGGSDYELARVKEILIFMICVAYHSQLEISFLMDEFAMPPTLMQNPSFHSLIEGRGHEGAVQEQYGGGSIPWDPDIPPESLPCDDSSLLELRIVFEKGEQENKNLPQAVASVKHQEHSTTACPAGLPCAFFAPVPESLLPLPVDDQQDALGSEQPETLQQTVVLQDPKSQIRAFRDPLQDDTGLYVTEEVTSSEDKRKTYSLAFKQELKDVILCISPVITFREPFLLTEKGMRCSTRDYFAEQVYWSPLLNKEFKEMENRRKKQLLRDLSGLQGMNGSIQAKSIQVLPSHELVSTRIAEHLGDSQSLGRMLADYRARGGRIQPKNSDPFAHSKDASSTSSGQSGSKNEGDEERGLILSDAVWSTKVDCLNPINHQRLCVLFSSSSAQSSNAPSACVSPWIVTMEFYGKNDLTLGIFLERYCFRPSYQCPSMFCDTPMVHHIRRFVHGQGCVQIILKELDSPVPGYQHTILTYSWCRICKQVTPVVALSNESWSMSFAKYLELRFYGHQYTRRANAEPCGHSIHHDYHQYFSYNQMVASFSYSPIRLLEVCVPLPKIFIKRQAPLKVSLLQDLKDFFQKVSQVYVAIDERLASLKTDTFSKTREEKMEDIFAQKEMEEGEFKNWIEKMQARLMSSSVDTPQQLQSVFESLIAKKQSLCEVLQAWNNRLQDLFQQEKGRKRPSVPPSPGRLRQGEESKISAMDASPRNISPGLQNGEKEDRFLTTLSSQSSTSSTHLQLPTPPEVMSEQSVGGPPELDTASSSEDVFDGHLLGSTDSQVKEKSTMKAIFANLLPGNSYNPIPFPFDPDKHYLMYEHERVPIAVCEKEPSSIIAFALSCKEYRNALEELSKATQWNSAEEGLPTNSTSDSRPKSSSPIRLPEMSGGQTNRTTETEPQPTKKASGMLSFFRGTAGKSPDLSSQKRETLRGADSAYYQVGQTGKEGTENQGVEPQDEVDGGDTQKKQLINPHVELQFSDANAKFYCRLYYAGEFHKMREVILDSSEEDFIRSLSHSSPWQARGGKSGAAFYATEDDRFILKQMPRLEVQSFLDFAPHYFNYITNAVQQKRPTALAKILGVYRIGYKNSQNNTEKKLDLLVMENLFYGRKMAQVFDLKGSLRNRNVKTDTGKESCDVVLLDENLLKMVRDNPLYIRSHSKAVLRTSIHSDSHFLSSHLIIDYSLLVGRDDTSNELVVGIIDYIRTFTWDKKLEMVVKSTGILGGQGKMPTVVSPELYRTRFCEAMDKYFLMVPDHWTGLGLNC

| IC50 [nM] | SMILES |
| --- | --- |
| < 5 | Cn1cc(CCOc2nc(N3CCOCC3)cc(-n3ccc(-c4ccccc4)n3)n2)cn1 [Compound 73] |
| < 5 | Cc1cccc(-c2ccn(-c3cc(N4CCOCC4)nc(OCC4(C)COC4)n3)n2)c1 [Compound 67] |
| 101 to 1000 | OCC(O)COc1nc(N2CCOCC2)cc(-n2cc3ccccc3n2)n1 (stereo not shown) [Compound 52] |
| < 5 | COC(CO)c1nc(N2CCOCC2)cc(-n2ccc(-c3cccc(C)c3)n2)n1 (stereo not shown) [Compound 50] |
| 1000 to 10000 | Fc1ccc(-c2cnn(-c3cc(N4CC[C@H]5OCC[C@H]54)nc(OCCc4ccccn4)n3)c2)cc1 [Compound 41] |
| 101 to 1000 | OCC(O)COc1nc(N2CCOCC2)cc(-n2ncc3ccccc32)n1 (stereo not shown) [Compound 53] |
| 101 to 1000 | c1cc(-c2cc(N3CCOCC3)nc(OCC3CCCO3)n2)n[nH]1 (stereo not shown) [Compound 45, 4-(6-(1H-pyrazol-3-yl)-2-((tetrahydrofuran-2-yl)methoxy)pyrimidin-4-yl)morpholine] |
| < 5 | Cn1cc(CCOc2nc(N3CCOCC3)cc(-n3ccc(-c4cccc(CO)c4)n3)n2)cn1 [Compound 89] |
| 101 to 1000 | Cc1cccc(-c2ccn(-c3cc(N4CCOCC4)nc(Cc4ccccc4)n3)n2)c1 [Compound 42] |
| 5 to 100 | COCC(O)c1nc(N2CCOCC2)cc(-n2ccc(-c3cccc(C)c3)n2)n1 (stereo not shown) [Compound 49] |
| < 5 | Cc1cccc(-c2ccn(-c3cc(N4CCOCC4)nc(NC(=O)Cc4cnn(C)c4)n3)n2)c1 [Compound 65] |

Same assay, conditions: Table 3

| IC50 [nM] | SMILES |
| --- | --- |
| 10 to 100 | Cn1cc(CCOc2nc(N3CCOCC3)cc(-n3ccc(-c4cccc5c4OCCN5)n3)n2)cn1 [Compound 244, 8-(1-(2-(2-(1-methyl-1H-pyrazol-4-yl)ethoxy)-6-morpholinopyrimidin-4-yl)-1H-pyrazol-3-yl)-3,4-dihydro-2H-benzo[b][1,4]oxazine] |
| > 5000 | Cc1cccc(CC(=O)Nc2nc(OCCc3cnn(C)c3)cc(N3CCOCC3)n2)c1 [Compound 248, N-(4-(2-(1-methyl-1H-pyrazol-4-yl)ethoxy)-6-morpholinopyrimidin-2-yl)-2-(m-tolyl)acetamide] |
| 10 to 100 | CO[C@@H](CO)c1nc(N2CCOCC2)cc(-n2ccc(-c3cc(C)ccc3C)n2)n1 (single isomer, unassigned) [Compound 342] |
| 10 to 100 | CN(C)Cc1ccc2nn(-c3cc(N4CCOCC4)nc(OCCc4cnn(C)c4)n3)cc2c1 [Compound 253, N,N-dimethyl-1-(2-(2-(2-(1-methyl-1H-pyrazol-4-yl)ethoxy)-6-morpholinopyrimidin-4-yl)-2H-indazol-5-yl)methanamine] |
| 10 to 100 | CO[C@@H](CO)c1nc(N2CCOCC2)cc(-n2nc(-c3c[nH]c4ncccc34)cc2C)n1 [Compound 285, (R)-2-methoxy-2-(4-(5-methyl-3-(1H-pyrrolo[2,3-b]pyridin-3-yl)-1H-pyrazol-1-yl)-6-morpholinopyrimidin-2-yl)ethan-1-ol] |
| 100 to 5000 | CO[C@@H](CO)c1nc(N2CCOCC2)cc(-n2ccc(-c3cccc4c3COC4)n2)n1 [Compound 271, (R)-2-(4-(3-(1,3-dihydroisobenzofuran-4-yl)-1H-pyrazol-1-yl)-6-morpholinopyrimidin-2-yl)-2-methoxyethan-1-ol] |
| 10 to 100 | Cc1c2ccc(CO)cc2nn1-c1cc(N2CCOCC2)nc(OCCc2cnn(C)c2)n1 [Compound 255, (3-methyl-2-(2-(2-(1-methyl-1H-pyrazol-4-yl)ethoxy)-6-morpholinopyrimidin-4-yl)-2H-indazol-6-yl)methanol] |
| 10 to 100 | CN(C)Cc1cc(-c2ccccc2)nn1-c1cc(N2CCOCC2)nc(OCC2(C)COC2)n1 [Compound 207, N,N-dimethyl-1-(1-(2-((3-methyloxetan-3-yl)methoxy)-6-morpholinopyrimidin-4-yl)-3-phenyl-1H-pyrazol-5-yl)methanamine] |
| 100 to 5000 | Cc1cccc(-c2cn(C)n(-c3cc(N4CCOCC4)nc(OCCc4cnn(C)c4)n3)c2=O)c1 [Compound 247, 1-methyl-2-(2-(2-(1-methyl-1H-pyrazol-4-yl)ethoxy)-6-morpholinopyrimidin-4-yl)-4-(m-tolyl)-1,2-dihydro-3H-pyrazol-3-one] |
| 100 to 5000 | CO[C@H](CO)c1nc(N2CCOCC2)cc(-n2nc(-c3c[nH]c4cnccc34)cc2C)n1 [Compound 286, (S)-2-methoxy-2-(4-(5-methyl-3-(1H-pyrrolo[2,3-c]pyridin-3-yl)-1H-pyrazol-1-yl)-6-morpholinopyrimidin-2-yl)ethan-1-ol] |
| 100 to 5000 | CO[C@@H](CO)c1nc(N2CCOCC2)cc(-n2nc(-c3c[nH]c4cccnc34)cc2C)n1 [Compound 291, (R)-2-methoxy-2-(4-(5-methyl-3-(1H-pyrrolo[3,2-b]pyridin-3-yl)-1H-pyrazol-1-yl)-6-morpholinopyrimidin-2-yl)ethan-1-ol] |
| 100 to 5000 | CO[C@H](CO)c1nc(N2CCOCC2)cc(-n2ccc(-c3cccc(C)c3C)n2)n1 [Compound 264, (S)-2-(4-(3-(2,3-dimethylphenyl)-1H-pyrazol-1-yl)-6-morpholinopyrimidin-2-yl)-2-methoxyethan-1-ol] |
| 3 to 10 | Cc1cccc(-c2ccn(-c3cc(N4CCOCC4)nc(OCCc4ccccn4)n3)n2)c1 [Compound 92, 4-(2-(2-(pyridin-2-yl)ethoxy)-6-(3-(m-tolyl)-1H-pyrazol-1-yl)pyrimidin-4-yl)morpholine] |
| 100 to 5000 | Cc1cccc(CC(=O)Nc2cc(N3CCOCC3)nc(OCCc3cnn(C)c3)n2)c1 [Compound 249, N-(2-(2-(1-methyl-1H-pyrazol-4-yl)ethoxy)-6-morpholinopyrimidin-4-yl)-2-(m-tolyl)acetamide] |
| 10 to 100 | CO[C@H](CO)c1nc(N2CCOCC2)cc(-n2nc(-c3ccccc3)cc2C2CC2)n1 (single isomer, unassigned) [Compound 256] |
| 10 to 100 | CCc1cc(-c2ccccc2)nn1-c1cc(N2CCOCC2)nc([C@H](CO)OC)n1 [Compound 295, (R)-2-(4-(5-ethyl-3-phenyl-1H-pyrazol-1-yl)-6-morpholinopyrimidin-2-yl)-2-methoxyethan-1-ol] |
| 10 to 100 | CO[C@@H](CO)c1nc(N2CCOCC2)cc(-n2nc(-c3ccccc3)cc2C2CC2)n1 (single isomer, unassigned) [Compound 257] |
| 10 to 100 | CO[C@H](CO)c1nc(N2CCOCC2)cc(-n2ccc(-c3cc(C)ccc3C)n2)n1 (single isomer, unassigned) [Compound 343] |
| 100 to 5000 | Cn1cc(CCOc2nc(N3CCOCC3)cc(-n3ccc(C4CCC4)n3)n2)cn1 [Compound 192, 4-(6-(3-cyclobutyl-1H-pyrazol-1-yl)-2-(2-(1-methyl-1H-pyrazol-4-yl)ethoxy)pyrimidin-4-yl)morpholine] |
| 100 to 5000 | CO[C@@H](CO)c1nc(N2CCOCC2)cc(-n2nc(-c3cnc4ccccn34)cc2C)n1 [Compound 281, (R)-2-(4-(3-(imidazo[1,2-a]pyridin-3-yl)-5-methyl-1H-pyrazol-1-yl)-6-morpholinopyrimidin-2-yl)-2-methoxyethan-1-ol] |
